Two compounds from article PMC6348444, “New Water-Soluble Copper(II) Complexes with Morpholine–Thiosemicarbazone Hybrids: Insights into the Anticancer and Antibacterial Mode of Action” (Journal of Medicinal Chemistry, 2018) can be followed below.

The test system of one assay is HEK293 cells. The experiment in a line: MTT cytotoxicity assay, HEK293. The class given is cell-based, human. The following applies: for SF (selectivity factor): IC50(HEK293)/IC50(A2780); for IC50: MTT assay, 72 h exposure, noncancerous cells.
A further assay has as its target T1, mouse R2 RNR protein (Mus musculus, UniProt P11157).
T1 construct: made in house; host or cells: Escherichia coli
T1 sequence (P11157 1-390): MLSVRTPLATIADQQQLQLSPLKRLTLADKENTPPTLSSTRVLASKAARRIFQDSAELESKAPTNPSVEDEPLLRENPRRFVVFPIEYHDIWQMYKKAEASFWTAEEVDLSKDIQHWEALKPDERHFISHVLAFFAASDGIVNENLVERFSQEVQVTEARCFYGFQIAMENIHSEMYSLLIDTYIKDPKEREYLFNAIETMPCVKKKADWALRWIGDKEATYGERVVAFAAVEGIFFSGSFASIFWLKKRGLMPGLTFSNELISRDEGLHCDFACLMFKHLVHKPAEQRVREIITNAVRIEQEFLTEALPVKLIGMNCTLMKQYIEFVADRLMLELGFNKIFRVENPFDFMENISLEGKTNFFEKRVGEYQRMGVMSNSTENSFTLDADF
The experiment in a line: Tyrosyl radical reduction in R2 RNR protein by EPR. The format is biochemical. The following applies: 1:1 protein-to-compound ratio, 298 K, presence of DTT, within 90 s. On the procedure: The effects of the most cytotoxic complexes 2 and 5, and the corresponding proligands HL^2 and HL^5, on the mouse R2 tyrosyl radical were investigated by EPR spectroscopy at 30 K. The proligands and their Cu(II) complexes were incubated with the mouse R2 RNR protein at 1:1 protein-to-compound mole ratio at 298 K in the presence or absence of the reducing agent dithiothreitol (DTT), and the time-dependent reduction of the tyrosyl radical was monitored.[39] Tyrosyl radical reduction by the investigated compounds was observed only in the presence of DTT. Upon incubation with HL^2, HL^5, and 2, 5, 50% of tyrosyl radical was reduced within 90 s, after which no further reduction was observed (Figure S15). […] HL^2 and HL^5 (λmax = 312 and 320 nm, respectively) readily reacted with FeSO4·7H2O affording Fe(II) bis-ligand complexes (λmax = 373, 610 nm and λmax = 385, 645 nm, respectively) at both 1:1 and 1:2 Fe-to-ligand mole ratios. […]
The 9.4 GHz EPR spectra were recorded at 30 K on a Bruker EleXsys II E540 EPR spectrometer with an Oxford Instruments ESR900 helium cryostat, essentially as described previously.[51] […]

The test system of a further assay is A2780 cells. The experiment in a line: MTT cytotoxicity assay, A2780. The note with it: 72 h exposure. The format is cell-based, human.

On to `CN(C)C(=NN=Cc1ccc(CN2CCOCC2)cn1)[S][Cu][Cl]` [complex 2, [Cu(L^2)Cl]], for which, in the assay with HEK293 cells, the “SF (selectivity factor)” value stood at 2.7 and 32 ± 8 nM corresponded to half-maximal inhibition (IC50). For the same compound, the tyrosyl radical reduced on mouse R2 RNR protein was 50%. The same compound came in with an IC50 in the assay on A2780 cells of 12 ± 2 nM.
With `[Cl][Cu][S]C(=NN=Cc1ccc(CN2CCOCC2)cn1)Nc1ccccc1` [complex 5, [Cu(L^5)Cl]], in the assay with HEK293 cells, the “SF (selectivity factor)” value worked out at 2.2 and the IC50 was 20 ± 3 nM. In addition, on mouse R2 RNR protein, the tyrosyl radical reduced is given as 50%. The compound also showed an IC50 in the assay with A2780 cells of 9 ± 2 nM.
